This note sets out measurements from patent US12673945B2, “3-((8-((1H-pyrazol-4-yl)amino)imidazo[1,2-a]pyridin-3-yl)ethinyl)-n-phenylbenzamide derivative, method for preparing same, and pharmaceutical composition containing same as active ingredient for prevention or treatment of cancer” (DAEGU-GYEONGBUK MEDICAL INNOVATION FOUNDATION, priority 2020, dated 2026).

Bounds are passed on as bounds.

The GI50 is the concentration at which growth is held to half of that of the control. For orientation: AUC(0-t) means the area under the concentration-time curve up to a stated or last time point. A low value points to low exposure. What is called Cmax is the peak of the concentration-time curve. The term half-life denotes the time needed for the level to fall by half in the phase considered. The low end stands for rapid decline, the high end for slow decline.

In one data set the test system is Parental (Ba/F3). The data set is described as follows: Ba/F3 cell proliferation inhibition. The format is cell-based. Particulars: BaF3; 72 hours, Cell Counting Kit-8. The method, boiled down: (§1)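 GI50 derived from CCK-8 absorbance at 450 nm (2 h development), expressed relative to DMSO vehicle. Cells (parental or T315I-Bcr-Abl Ba/F3, 1×10^4/well) received nine threefold-diluted concentrations, final 0 to 10 μM, for 72 h at 37 °C.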

The next data set concerns T315I-Bcr-Abl (Ba/F3). As to the kind of experiment: Ba/F3 cell proliferation inhibition. Particulars: BaF3; 72 hours, Cell Counting Kit-8. In kind it is cell-based. Put shortly:
as §1
Background: Tetrazolium assays rely on reduction of a dye to a coloured formazan, in cell work by metabolically active cells.

Data set [1] in a line: oral pharmacokinetic test. The format is in vivo, SD rats. Conditions: SD, plasma; rat, 10 mg/Kg PO, vehicle A (NMP:PEG400=5:95). As to the method:
To evaluate the pharmacokinetic properties in vivo, oral pharmacokinetic test was performed with the compounds of Comparative Examples 1 and 4 and Examples 1 and 4 using mice and rats, and the PK parameters are shown in Table 10.
ICR mice (6-7 weeks old) and SD rats (6-7 weeks old) were used for the test. The fasted group was fasted about 16 hours before oral administration, and the fed group was fasted about 4 hours before oral administration. The test drug for oral administration was used by dissolving the drug in a vehicle at a concentration of 1 mg/mL for use, and blood samples were collected (time point: 0.25, 0.5, 1, 2, 4, 8, 12, 24, 32, n=3) from the heart (mouse, 500 μL/time point) or jugular vein (rat, 120 μL/time point). Blood was centrifuged at 12,000 G at 4° C. for 2 minutes to separate plasma, and stored at −80° C. until analysis. • Vehicle A (NMP:PEG400=5:95) • Vehicle B (0.5% methyl cellulose) 6-2. Sampling and Pretreatment
To 20 μl of plasma, 180 μl of acetonitrile (including internal standard) was added. The mixture was vortexed and centrifuged for 5 minutes at 15,000 rpm at 4° C. The supernatant obtained after centrifugation was analyzed by LC-MS/MS.
PK parameters were calculated with a non-compartmental analysis model using Phoenix WinNonlin 6.4 version (Pharsight, USA) program.

The test system of data set [2] is Luc_Ba/F3 T315I-Bcr-Abl cell line. The data set is described as follows: in vivo pharmacological activity, blood cancer mouse model. Also noted: species or system nude mice. Particulars: for day after the administration on which all subjects died (FIG. 3): vehicle group: day 21. As to the method: After the mice were adapted to an animal facility for 1 week, the Luc_Ba/F3 T315I-Bcr-Abl cell line emitting luciferase was transplanted into the caudal vein at the density of 5×10^6/animal. Group separation was performed 3 days after the cell line transplantation. On the day of the group separation, 10 mice were randomly assigned to each group of 5 groups so that the luminescence values were equal after luminescence measurement using IVIS spectrum-CT optical imaging equipment.
In addition, the body weight and survival rate of each experimental group were monitored.
Statistical analysis was performed using GraphPad Prism 8, and the statistical significance of the survival rate was confirmed using unpaired t test and log-rank (Mantel-Cox) test.

Regarding `Cc1cn(-c2cc(NC(=O)c3cc(C#Cc4cnc5c(Nc6cnn(C)c6)cccn45)c(C)cc3F)cc(C(F)(F)F)c2)cn1` [Example 4, 2-fluoro-4-methyl-N-(3-(4-methyl-1H-imidazol-1-yl)-5-(trifluoromethyl)phenyl)-5-((8-((1-methyl-1H-pyrazol-4-yl)amino)imidazo[1,2-a]pyridin-3-yl)ethynyl)benzamide], the GI50 with Parental (Ba/F3) is over 5 µM; with T315I-Bcr-Abl (Ba/F3) it was under 0.05 µM.
As to `Cc1cn(-c2cc(NC(=O)c3cc(C#Cc4cnc5c(Nc6cnn(C)c6)cccn45)c(C)cc3F)cc(C(C)(C)C#N)c2)cn1` [Example 1, N-(3-(2-cyanopropane-2-yl)-5-(4-methyl-1H-imidazol-1-yl)phenyl)-2-fluoro-4-methyl-5-((8-((1-methyl-1H-pyrazol-4-yl)amino)imidazo[1,2-a]pyridin-3-yl)ethynyl)benzamide], the exposure AUC(0-t) in data set [1] was determined as 15900 ng·h/mL. In data set [1], this molecule came in with a peak concentration (Cmax) of 2000 ng/mL. The molecule also gave a half-life in data set [1] of 3.3 h. For the same molecule, the GI50 was over 5 µM with Parental (Ba/F3) and under 0.05 µM in the data set on T315I-Bcr-Abl (Ba/F3). The “day after the administration on which all subjects died (FIG. 3)” value in data set [2] (25 mg/kg oral once a day for 10 days) came out at 31 days; in data set [2] (50 mg/kg oral once a day for 10 days) it was 32 days; in data set [2] (100 mg/kg oral once a day for 10 days) it was 35 days. Further, the “dose dependence of luminescence signal (FIG. 2)” value in data set [2] (25, 50, 100 mg/kg oral once a day for 10 days) is “decreased dose-dependently”. The “luminescence values in optical images compared to the vehicle group (FIG. 1)” value in data set [2] (all treated groups, oral once a day for 10 days, images days 0, 4, 11, 18) was “weak luminescence values”. Moreover, the “luminescence signals emitted from blood cancer cells compared to the vehicle group (FIG. 2)” value in data set [2] (day 18 after administration, 25, 50, 100 mg/kg oral) is given as “weak luminescence signals”.
